Converted amounts (≈) assume the structure as drawn.
Experiments:
[1] = tested on: Staphylococcus aureus; assay: Antibacterial activity against Staphylococcus aureus ATCC 6538 after 24 hrs by microdilution method; assay type: functional; details: ATCC 6538, 24 h
[2] = tested on: Bacillus cereus; assay: Antibacterial activity against Bacillus cereus clinical isolate after 24 hrs by microdilution method; assay type: functional
[3] = tested on: Micrococcus flavus; assay: Antibacterial activity against Micrococcus flavus ATCC 10240 after 24 hrs by microdilution method; assay type: functional; details: ATCC 10240, 24 h
[4] = tested on: Listeria monocytogenes; assay: Antibacterial activity against Listeria monocytogenes NCTC 7973 after 24 hrs by microdilution method; assay type: functional; details: NCTC 7973, 24 h
[5] = tested on: Pseudomonas aeruginosa; assay: Antibacterial activity against Pseudomonas aeruginosa ATCC 27853 after 24 hrs by microdilution method; assay type: functional; details: ATCC 27853, 24 h
[6] = tested on: Salmonella typhimurium; assay: Antibacterial activity against Salmonella Typhimurium ATCC 13311 after 24 hrs by microdilution method; assay type: functional, Salmonella enterica subsp. enterica serovar Typhimurium; details: Salmonella enterica, ATCC 13311, 24 h
[7] = tested on: Escherichia coli; assay: Antibacterial activity against Escherichia coli ATCC 35210 after 24 hrs by microdilution method; assay type: functional; details: ATCC 35210, 24 h
[8] = tested on: Enterococcus faecalis; assay: Antibacterial activity against Enterococcus faecalis isolate obtained from human after 24 hrs by microdilution method; assay type: functional
[9] = tested on: Staphylococcus aureus; assay: Bactericidal activity against Staphylococcus aureus ATCC 6538 after 24 hrs; assay type: functional; details: ATCC 6538, 24 h
[10] = tested on: Bacillus cereus; assay: Bactericidal activity against Bacillus cereus clinical isolate after 24 hrs; assay type: functional
[11] = tested on: Micrococcus flavus; assay: Bactericidal activity against Micrococcus flavus ATCC 10240 after 24 hrs; assay type: functional; details: ATCC 10240, 24 h
[12] = tested on: Listeria monocytogenes; assay: Bactericidal activity against Listeria monocytogenes NCTC 7973 after 24 hrs; assay type: functional; details: NCTC 7973, 24 h
[13] = tested on: Pseudomonas aeruginosa; assay: Bactericidal activity against Pseudomonas aeruginosa ATCC 27853 after 24 hrs; assay type: functional; details: ATCC 27853, 24 h
[14] = tested on: Salmonella typhimurium; assay: Bactericidal activity against Salmonella Typhimurium ATCC 13311 after 24 hrs; assay type: functional, Salmonella enterica subsp. enterica serovar Typhimurium; details: Salmonella enterica, ATCC 13311, 24 h
[15] = tested on: Escherichia coli; assay: Bactericidal activity against Escherichia coli ATCC 35210 after 24 hrs; assay type: functional; details: ATCC 35210, 24 h
[16] = tested on: Enterococcus faecalis; assay: Bactericidal activity against Enterococcus faecalis isolate obtained from human after 24 hrs; assay type: functional
[17] = tested on: Aspergillus ochraceus; assay: Antifungal activity against Aspergillus ochraceus ATCC 12066 after 72 hrs by serial dilution method; assay type: functional; details: ATCC 12066, 72 h
[18] = tested on: Aspergillus versicolor; assay: Antifungal activity against Aspergillus versicolor ATCC 11730 after 72 hrs by serial dilution method; assay type: functional; details: ATCC 11730, 72 h
[19] = tested on: Aspergillus niger; assay: Antifungal activity against Aspergillus niger ATCC 6275 after 72 hrs by serial dilution method; assay type: functional; details: ATCC 6275, 72 h
[20] = tested on: Aspergillus fumigatus; assay: Antifungal activity against Aspergillus fumigatus plant isolate after 72 hrs by serial dilution method; assay type: functional
[21] = tested on: Trichoderma viride; assay: Antifungal activity against Trichoderma viride IAM 5061 after 72 hrs by serial dilution method; assay type: functional; details: IAM 5061, 72 h
[22] = tested on: Penicillium ochrochloron; assay: Antifungal activity against Penicillium ochrochloron ATCC 9112 after 72 hrs by serial dilution method; assay type: functional; details: ATCC 9112, 72 h
[23] = tested on: Talaromyces funiculosus; assay: Antifungal activity against Penicillium funiculosum ATCC 36839 after 72 hrs by serial dilution method; assay type: functional; details: ATCC 36839, 72 h
[24] = Antifungal activity against Fusarium sporotrichioides IMT 496 after 72 hrs by serial dilution method; assay type: functional
[25] = tested on: Aspergillus ochraceus; assay: Fungicidal activity against Aspergillus ochraceus ATCC 12066 after 72 hrs; assay type: functional; details: ATCC 12066, 72 h
[26] = tested on: Aspergillus versicolor; assay: Fungicidal activity against Aspergillus versicolor ATCC 11730 after 72 hrs; assay type: functional; details: ATCC 11730, 72 h
[27] = tested on: Aspergillus niger; assay: Fungicidal activity against Aspergillus niger ATCC 6275 after 72 hrs; assay type: functional; details: ATCC 6275, 72 h
[28] = tested on: Aspergillus fumigatus; assay: Fungicidal activity against Aspergillus fumigatus plant isolate after 72 hrs; assay type: functional
[29] = tested on: Trichoderma viride; assay: Fungicidal activity against Trichoderma viride IAM 5061 after 72 hrs; assay type: functional; details: IAM 5061, 72 h
[30] = tested on: Penicillium ochrochloron; assay: Fungicidal activity against Penicillium ochrochloron ATCC 9112 after 72 hrs; assay type: functional; details: ATCC 9112, 72 h
[31] = tested on: Talaromyces funiculosus; assay: Fungicidal activity against Penicillium funiculosum ATCC 36839 after 72 hrs; assay type: functional; details: ATCC 36839, 72 h
[32] = tested on: Fusarium sporotrichioides; assay: Fungicidal activity against Fusarium sporotrichioides IMT 496 after 72 hrs; assay type: functional; details: IMT 496, 72 h

SMILES	MIC [1] [µM]	MIC [2] [µM]	MIC [3] [µM]	MIC [4] [µM]	MIC [5] [µM]	MIC [6] [µM]	MIC [7] [µM]	MIC [8] [µM]	MBC [9] [µM]	MBC [10] [µM]	MBC [11] [µM]	MBC [12] [µM]	MBC [13] [µM]	MBC [14] [µM]	MBC [15] [µM]	MBC [16] [µM]	MIC [17] [µM]	MIC [18] [µM]	MIC [19] [µM]	MIC [20] [µM]	other results
CNc1nc(C)c(C(=O)/C=C/c2cccc(Cl)c2)s1	342 (≈ 100 µg/mL)	342 (≈ 100 µg/mL)	256 (≈ 75.1 µg/mL)	342 (≈ 100 µg/mL)	342 (≈ 100 µg/mL)	290 (≈ 85.1 µg/mL)	290 (≈ 85.1 µg/mL)	85.4 (≈ 25 µg/mL)	513 (≈ 150 µg/mL)	513 (≈ 150 µg/mL)	342 (≈ 100 µg/mL)	513 (≈ 150 µg/mL)	513 (≈ 150 µg/mL)	342 (≈ 100 µg/mL)	342 (≈ 100 µg/mL)	342 (≈ 100 µg/mL)	340 (≈ 99.5 µg/mL)	340 (≈ 99.5 µg/mL)	340 (≈ 99.5 µg/mL)	340 (≈ 99.5 µg/mL)	MIC [21]: 170 µM (≈ 49.8 µg/mL); MIC [22]: 340 µM (≈ 99.5 µg/mL); MIC [23]: 340 µM (≈ 99.5 µg/mL); MIC (10'-2 umol/ml) [24]: 17; MFC [25]: 513 µM (≈ 150 µg/mL); MFC [26]: 513 µM (≈ 150 µg/mL); MFC [27]: 854 µM (≈ 250 µg/mL); MFC [28]: 513 µM (≈ 150 µg/mL); MFC [29]: 340 µM (≈ 99.5 µg/mL); MFC [30]: 513 µM (≈ 150 µg/mL); MFC [31]: 513 µM (≈ 150 µg/mL); MFC [32]: 683 µM (≈ 200 µg/mL)
CNc1nc(C)c(C(=O)/C=C/c2ccccc2)s1	388 (≈ 100 µg/mL)	388 (≈ 100 µg/mL)	194 (≈ 50 µg/mL)	388 (≈ 100 µg/mL)	291 (≈ 75.1 µg/mL)	329 (≈ 85.1 µg/mL)	329 (≈ 85.1 µg/mL)	194 (≈ 50 µg/mL)	581 (≈ 150 µg/mL)	581 (≈ 150 µg/mL)	388 (≈ 100 µg/mL)	581 (≈ 150 µg/mL)	388 (≈ 100 µg/mL)	388 (≈ 100 µg/mL)	388 (≈ 100 µg/mL)	388 (≈ 100 µg/mL)	388 (≈ 100 µg/mL)	194 (≈ 50.1 µg/mL)	388 (≈ 100 µg/mL)	388 (≈ 100 µg/mL)	MIC [21]: 194 µM (≈ 50.1 µg/mL); MIC [22]: 194 µM (≈ 50.1 µg/mL); MIC [23]: 388 µM (≈ 100 µg/mL); MIC (10'-2 umol/ml) [24]: 38.8; MFC [25]: 581 µM (≈ 150 µg/mL); MFC [26]: 581 µM (≈ 150 µg/mL); MFC [27]: 775 µM (≈ 200 µg/mL); MFC [28]: 581 µM (≈ 150 µg/mL); MFC [29]: 388 µM (≈ 100 µg/mL); MFC [30]: 775 µM (≈ 200 µg/mL); MFC [31]: 581 µM (≈ 150 µg/mL); MFC [32]: 388 µM (≈ 100 µg/mL)
CNc1nc(C)c(C(=O)/C=C/c2cccc([N+](=O)[O-])c2)s1	330 (≈ 100 µg/mL)	330 (≈ 100 µg/mL)	330 (≈ 100 µg/mL)	330 (≈ 100 µg/mL)	280 (≈ 85.1 µg/mL)	280 (≈ 85.1 µg/mL)	248 (≈ 75.1 µg/mL)	330 (≈ 100 µg/mL)	495 (≈ 150 µg/mL)	330 (≈ 100 µg/mL)	495 (≈ 150 µg/mL)	495 (≈ 150 µg/mL)	330 (≈ 100 µg/mL)	330 (≈ 100 µg/mL)	330 (≈ 100 µg/mL)	330 (≈ 100 µg/mL)	330 (≈ 100 µg/mL)	330 (≈ 100 µg/mL)	330 (≈ 100 µg/mL)	330 (≈ 100 µg/mL)	MIC [21]: 165 µM (≈ 50.1 µg/mL); MIC [22]: 330 µM (≈ 100 µg/mL); MIC [23]: 330 µM (≈ 100 µg/mL); MIC (10'-2 umol/ml) [24]: 33; MFC [25]: 496 µM (≈ 150 µg/mL); MFC [26]: 496 µM (≈ 150 µg/mL); MFC [27]: 660 µM (≈ 200 µg/mL); MFC [28]: 496 µM (≈ 150 µg/mL); MFC [29]: 330 µM (≈ 100 µg/mL); MFC [30]: 496 µM (≈ 150 µg/mL); MFC [31]: 496 µM (≈ 150 µg/mL); MFC [32]: 660 µM (≈ 200 µg/mL)
CNc1nc(C)c(C(=O)/C=C/c2ccc(Cl)cc2Cl)s1	306 (≈ 100 µg/mL)	229 (≈ 75 µg/mL)	306 (≈ 100 µg/mL)	306 (≈ 100 µg/mL)	306 (≈ 100 µg/mL)	229 (≈ 75 µg/mL)	306 (≈ 100 µg/mL)	306 (≈ 100 µg/mL)	459 (≈ 150 µg/mL)	306 (≈ 100 µg/mL)	459 (≈ 150 µg/mL)	459 (≈ 150 µg/mL)	306 (≈ 100 µg/mL)	306 (≈ 100 µg/mL)	459 (≈ 150 µg/mL)	459 (≈ 150 µg/mL)	306 (≈ 100 µg/mL)	153 (≈ 50 µg/mL)	459 (≈ 150 µg/mL)	153 (≈ 50 µg/mL)	MIC [21]: 153 µM (≈ 50 µg/mL); MIC [22]: 306 µM (≈ 100 µg/mL); MIC [23]: 153 µM (≈ 50 µg/mL); MIC (10'-2 umol/ml) [24]: 15.3; MFC [25]: 612 µM (≈ 200 µg/mL); MFC [26]: 612 µM (≈ 200 µg/mL); MFC [27]: 612 µM (≈ 200 µg/mL); MFC [28]: 612 µM (≈ 200 µg/mL); MFC [29]: 306 µM (≈ 100 µg/mL); MFC [30]: 612 µM (≈ 200 µg/mL); MFC [31]: 306 µM (≈ 100 µg/mL); MFC [32]: 306 µM (≈ 100 µg/mL)
